Assay results taken from patent publication US10780078B2, “Mu opioid receptor modulators” (THE REGENTS OF THE UNIVERSITY OF CALIFORNIA, priority 2017, dated 2020).
Like-named read-outs stand apart in the source and are kept apart here.

Experiments:
[1] = target: δ (DOR) receptor (Homo sapiens (Human), UniProt P41143); assay: Inhibitory constant at δ opioid receptor (DOR); type: binding
[2] = target: μ (MOR) receptor (Homo sapiens (Human), UniProt P35372); assay: Inhibitory constant at μ opioid receptor (MOR); type: binding
[3] = target: MOR (ProLink tagged MOR-PK1 cotransfected with GRK2 / β-arrestin-2) (Homo sapiens (Human), UniProt P35372); assay: β-arrestin recruitment in the presence of GRK2, PathHunter assay; type: cell-based; settings: for MOR activation, β-arrestin recruitment (+GRK2) Emax: HEK-293 cells cotransfected with GRK2; for EC50: MOR activation, β-arrestin recruitment (+GRK2) EC50, HEK-293 cells cotransfected with GRK2
Experimental: (§1) β-Arrestin recruitment was measured by using the PathHunter enzyme complementation assay (DiscoverX, Birmingham, U.K.) as described in the manufacturer's protocol. […] After 24 h cells were transferred into white clear bottom 384-well plates (5000 cells/well) (Greiner Bio-One) and maintained for further 24 h at 37° C., 5% CO2. Test compounds were incubated with the cells in a range from 0.01 nM to 1 μM dissolved in PBS for 90 min at 37° C. Arrestin recruitment was stopped by addition of detection mix for 60 min at room temperature. Chemiluminescence was determined using a Clariostar plate reader. Data analysis was done by nonlinear regression using the algorithms for log(agonist) vs. response of PRISM 6.0 (GraphPad, San Diego, Calif.). […] For testing the arrestin recruitment in the presence of GRK proteins cells were cotransfected with ProLink tagged MOR-PK1 and GRK2 at equal quantities.

[4] = target: human μOR (Homo sapiens (Human), UniProt P35372); assay: cell-based
Experimental: Determination of functional activity of selected embodiments was performed using a BRET-based cAMP accumulation assay. […] After 24 hrs of transfection cells were seeded into white half-area 96-well plates at a density of 10000 cells/well and grown for further 24 hrs. On the day of measurement, medium was removed and replaced by Phosphate Buffered Saline (PBS) and cells were serum starved for 1 hr before treatment with ligands. Cells were preincubated with coelenterazine h (Progmega, Mannheim, Germany) for 5 min at a final concentration of 5 μM before adding forskolin (final concentration 10 μM) to start cAMP accumulation. Immediately after adding forskolin, a series of concentrations of test compounds were added to the cells. After incubating the microplates for 15 min at 37° C. BRET, measurement was performed using a Clariostar plate reader (BMG LabTech, Ortenberg, Germany).

[5] = target: MOR (ProLink tagged MOR-PK1 / β-arrestin-2) (Homo sapiens (Human), UniProt P35372); assay: β-arrestin recruitment, PathHunter enzyme complementation assay (DiscoverX); type: cell-based; settings: for MOR activation, β-arrestin recruitment Emax: HEK-293 cells, normalized to maximum effect of DAMGO (100%); for Emax: HEK293, read-out: MOR activation, β-arrestin recruitment Emax
Experimental: as §1

[6] = normalized to maximum effect of DAMGO (100%)
[7] = Example 1, read-out: MOR: cAMP BRET: EC50
[8] = HEK-293T cells, forskolin 10 μM, mean of three to ten experiments, read-out: MOR activation, cAMP accumulation EC50

δ (DOR) receptor, sequence (P41143 whole entry, looked up): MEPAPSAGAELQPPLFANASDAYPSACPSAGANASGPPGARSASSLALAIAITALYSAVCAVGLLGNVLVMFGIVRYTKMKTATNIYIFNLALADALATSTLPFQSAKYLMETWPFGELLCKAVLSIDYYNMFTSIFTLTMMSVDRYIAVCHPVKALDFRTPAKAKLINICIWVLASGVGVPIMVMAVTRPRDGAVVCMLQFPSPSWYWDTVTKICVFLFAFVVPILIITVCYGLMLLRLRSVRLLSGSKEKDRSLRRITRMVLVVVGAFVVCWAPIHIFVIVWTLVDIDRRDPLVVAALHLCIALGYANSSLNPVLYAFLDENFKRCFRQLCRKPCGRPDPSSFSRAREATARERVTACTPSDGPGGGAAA

Row | SMILES | Ki [1] [nM] | Ki [2] [nM] | MOR activation, β-arrestin recruitment (+GRK2) Emax [3, 6] [%] | MOR activation, cAMP accumulation Emax [4] [%] | MOR: cAMP BRET: Emax ([4]; Example 1) [%] | EC50 [4, 7] [nM] | EC50 [4, 8] [nM] | MOR activation, β-arrestin recruitment Emax [5] [%] | EC50 [3] [nM] | Emax [5] [%] | Emax ([3]; HEK293, read-out: MOR activation, β-arrestin recruitment (+GRK2) Emax, HEK-293 cells cotransfected with GRK2, normalized to maximum effect of DAMGO (100%)) [%] | Emax ([4]; Example 1, read-out: MOR: cAMP BRET: Emax) [%] | Emax ([4]; HEK-293T, read-out: MOR activation, cAMP accumulation Emax) [%] | MOR: Arrestin DiscoverX ([5]; Example 1)
1 | C[C@@H](Cc1ccsc1)NC(=O)NCC1(N(C)C)CCc2ccccc2C1 (single isomer, unassigned) [DD 262 P1] | 14000 | 2600 | – | – | – | – | – | – | – | – | – | – | – | –
2 | C[C@@H](Cc1ccsc1)NC(=O)NCC1(N(C)C)CCc2ccccc2C1 (single isomer, unassigned) [DD 262 P2] | 7400 | 1300 | – | – | – | – | – | – | – | – | – | – | – | –
3 | C[C@@H](Cc1ccsc1)NC(=O)NCC1(N(C)C)CCc2cc(O)ccc2C1 (single isomer, unassigned) [DD 272A] | 1800 | 140 | <3 | 75 | 108 | 136 | 24 | <3 | – | – | – | – | – | –
4 | C[C@@H](Cc1ccsc1)NC(=O)NCC1(N(C)C)CCc2cc(O)ccc2C1 (single isomer, unassigned) [DD 272B] | 840 | 57 | 7 | 98 | 50 | 1.6 | 1.5 | – | 450 | < 3 | – | – | – | –
5 | C[C@@H](Cc1ccsc1)NC(=O)NCC1(N(C)C)Cc2ccc(O)cc2C1 (single isomer, unassigned) [DD 297A] | 68 | 5.9 | – | – | – | 1.8 | 1.2 | – | 42 | < 3 | 13 | 80 | 80 | –
6 | C[C@@H](Cc1ccsc1)NC(=O)NCC1(N(C)C)Cc2ccc(O)cc2C1 (single isomer, unassigned) [DD 297B] | 2000 | 190 | 7 | 73 | 65 | 12.5 | 13 | <3 | 670 | – | – | – | – | –
7 | C[C@@H](Cc1ccsc1)NC(=O)NCC1(N(C)C)Cc2ccccc2C1 [DD 277, (S)-1-((2-(dimethylamino)-2,3-dihydro-1H-inden-2-yl)methyl)-3-(1-(thiophen-3-yl)propan-2-yl)urea] | 8400 | 500 | – | – | – | – | – | – | – | – | – | – | – | –
8 | C[C@@H](Cc1ccsc1)NC(=O)NCC1(N(C)C)Cc2ccc(O)cc2C1 (stereo partly drawn) [DD 297A, 1-((2-(dimethylamino)-5-hydroxy-2,3-dihydro-1H-inden-2-yl)methyl)-3-((S)-1-(thiophen-3-yl)propan-2-yl)urea] | – | – | – | – | – | – | – | – | – | – | – | – | – | no significant activity
